The values that follow come from US6541493B1, “Crystals of 5-[{6-(2-fluorobenzyl)oxy-2-naphthyl}methyl]-2,4-thiazolidinedione” (Mitsubishi Chemical Corporation, priority 1999, dated 2003).

Type in all cases: physicochemical
Series [1] in a line: Stability in a solvent (heated with stirring in suspension). The following applies: heated with stirring in suspension in water, methylene chloride, hexane, ethyl acetate-hexane and ethanol. An excerpt:
The type A crystals were heated with stirring in a state of suspension in a variety of solvents including water, methylene chloride, hexane, ethyl acetate-hexane and ethanol, and then examined the absence or presence of a change of the crystal form after the treatment.

Series [2] in a line: Thermal stability (oven heating, powder X-ray diffraction). The settings on record: about 50 mg in glass bottle, under atmosphere in oven at 70° C. for 24 hours. The method, then:
A sample (about 50 mg) of each of the crystals of types A, C and D was placed in a transparent glass bottle, and heated under atmosphere in an oven at 70° C. for 24 hours. After cooling, powder X-ray diffraction pattern was measured to examine a change of the crystal form.

Series [3] in a line: Stability to physical impact (grinding in agate mortar, powder X-ray diffraction). The following applies: 1 g ground for 1 minute in agate mortar, powder X-ray diffraction pattern compared with before grinding. The method, then: A sample (1 g) of each of the type A-D crystals was placed in an agate mortar, and ground for 1 minute, and powder X-ray diffraction pattern of the ground sample was determined. The pattern was compared with that of the crystal form before the grinding to examine a change of the crystal form.

Entries after “also recorded” stand apart in the source; their conditions may differ.

With `O=C1NC(=O)C(Cc2ccc3cc(OCc4ccccc4F)ccc3c2)S1` (centres unmarked) [Crystal form A, 5-[{6-(2-fluorobenzyl)oxy-2-naphthyl}methyl]-2,4-thiazolidinedione], the “Change of the crystal form after treatment in solvents” value in series [1] was “no change”. The “Change of the crystal form after heating” value in series [2] (listed as type A) is listed as “no change”. Also, the Change after grinding result in series [3] (listed as A) is listed as “No change”.
With `O=C1NC(=O)C(Cc2ccc3cc(OCc4ccccc4F)ccc3c2)S1` (centres unmarked) [Crystal form B, 5-[{6-(2-fluorobenzyl)oxy-2-naphthyl}methyl]-2,4-thiazolidinedione], the Change after grinding entry in series [3] (listed as B) is “Partial changes; also recorded: Partially changed”.
Consider `O=C1NC(=O)C(Cc2ccc3cc(OCc4ccccc4F)ccc3c2)S1` (centres unmarked) [Crystal form C, 5-[{6-(2-fluorobenzyl)oxy-2-naphthyl}methyl]-2,4-thiazolidinedione], for which the “Change of the crystal form after heating” value in series [2] (listed as type C) is recorded as “partial change”. Besides, in series [3] (listed as C), the Change after grinding result is reported as “No change”.
With `O=C1NC(=O)C(Cc2ccc3cc(OCc4ccccc4F)ccc3c2)S1` (centres unmarked) [Crystal form D, 5-[{6-(2-fluorobenzyl)oxy-2-naphthyl}methyl]-2,4-thiazolidinedione], the “Change of the crystal form after heating” value in series [2] is “no change”. Besides, in series [3] (listed as D), the Change after grinding result is recorded as “Partial changes; also recorded: Partially changed”.
